Source: patent US20120302629A1, “BIOMARKERS FOR GOSSYPOL CHEMOTHERAPY AND METHODS OF TREATING DISEASE” (THE REGENTS OF THE UNIVERSITY OF MICHIGAN, priority 2009, published 2012)
Numbered stars: 1 amine (or outer) side, 2 acyl side, 3 side chain; on linkers, the order of the positions; unused ones are H or OH. Bridge positions count the residues as written; N and C are the ends. Square brackets hold non-standard residues; d marks the D form. Peptide text beside a SMILES is read from it. I, II: the chains in the order shown. Actinocin(9to1) = Cc1c2oc3c(C)ccc(C(=O)[*:1])c3nc-2c(C(=O)[*:2])c(N)c1=O; NMeV = CN[C@H](C(=O)O)C(C)C; Sar = CNCC(=O)O

What was measured:
MEF Bax/Bak KO cells = test: Apoptosis (Annexin V/PI flow cytometry) in MEF cells; assay type: cell-based; conditions: all the concentrations tested
Procedure: Cell Growth, Cell Death, and Apoptosis: Cell growth inhibition by (−)-gossypol was determined in a water-soluble tetrazolium (WST)-based assay, as described previously (Shangary et al., Proc. Natl. Acad. Sci. USA 105:3933 (2008)). Cell viability was determined by trypan blue due exclusion as described (Shangary et al., Proc. Natl. Acad. Sci. USA 105:3933 (2008)). Experiments were done in triplicate. To examine apoptosis, cells were stained with Annexin V and PI and analyzed by flow cytometery using an Annexin V-FITC staining kit (Roche Applied Science, Indianapolis, Ind.) according to manufacturer's instructions. Briefly, cells were treated and collected by centrifugation, washed with PBS once and then stained with annexinV-FITC and PI for 15 min at room temperature in the dark. Stained cells were analyzed in a FACS caliber flow cytometer. AnnexinV positive cells are considered as apoptotic cells.

[1] = test system: Noxa, Puma and Mcl-1 RNAs in 2LMP, PC-3, MDA-MB-436 and DU145 cells; test: Taqman real-time PCR with actinomycin D cotreatment; assay type: cell-based, human; conditions: cotreatment with (−)-gossypol 10 μm
Procedure: Real-Time PCR: Total RNA was extracted by RNA miniprep kit (Sigma) from cells treated with or without of (−)-gossypol. cDNA was synthesized from 2 μg of RNA using cDNA reverse transcription kits (Applied Biosystems). Next, Taqman gene expression assays were performed using Noxa (Hs00560402_ml), Puma (Hs00248075_ml), Mcl-1 (Hs00172036_ml) gene specific primers/probe sets for real-time PCR in a ABI7900HT PCR machine. GAPDH (Hs99999905_ml) was used for normalization. Relative quantitation of mRNA was calculated by comparative cycle threshold (Ct) method.

[2] = test system: Bcl-2 family proteins in PC-3 cells; test: Western blot of whole cell lysates; assay type: cell-based, human; conditions: cotreatment with (−)-gossypol (FIG. 26)
Procedure: (§1) Western blot assay: Proteins were harvested in RIPA buffer, then electrophoresed on 4-20% gradient SDS-PAGE gels (Invitrogen, Grand Island, N.Y.) and transferred to PVDF membranes. The membranes were blocked in 5% milk and then incubated with specific primary antibody, followed by secondary antibody. The signals were visualized with the chemiluminescent HRP antibody detection reagent (Deville Scientific, Metuchen, N.J.).

[3] = test system: Bcl-2 family proteins in 2LMP cells; test: Western blot of whole cell lysates; assay type: cell-based, human; conditions: cotreatment with (−)-gossypol (FIG. 26)
Procedure: as §1

SMILES | induction of cell death in the MEF Bax/Bak double knock-out (MEF Bax/Bak KO cells) | upregulation of Noxa, Puma and Mcl-1 RNAs by (−)-gossypol under cotreatment [1] | (−)-gossypol-upregulated Noxa and Puma proteins under cotreatment [2] | (−)-gossypol-upregulated Noxa and Puma proteins under cotreatment [3]
COc1cc([C@@H]2c3cc4c(cc3[C@@H](O[C@@H]3O[C@@H]5CO[C@@H](C)O[C@H]5[C@H](O)[C@H]3O)[C@H]3COC(=O)[C@H]23)OCO4)cc(OC)c1O [VP-16, 4′-demethylepipodophyllotoxin 9-[4,6-0-(R)-ethylidene-(beta)-D-glucopyranoside], reference compound] | blocked |  |  | 
Cc1c2oc3c(C)ccc(C(=O)N[C@@H]4C(=O)N[C@H](C(C)C)C(=O)N5CCC[C@H]5C(=O)N(C)CC(=O)N(C)[C@@H](C(C)C)C(=O)O[C@@H]4C)c3nc-2c(C(=O)N[C@@H]2C(=O)N[C@H](C(C)C)C(=O)N3CCC[C@H]3C(=O)N(C)CC(=O)N(C)[C@@H](C(C)C)C(=O)O[C@@H]2C)c(N)c1=O [actinomycin D, reference compound] (I: T[dV]P[Sar][NMeV] / II: T[dV]P[Sar][NMeV]; ester I:1-I:C, II:1-II:C; linker I:N-II:N via Actinocin(9to1)) |  | completely blocks | significantly blocked | significantly blocked
